A short description of the assay: Inhibition of wild type influenza A virus H5N1 (A/chicken/Hubei/327/2004) matrix protein 2 transfected in yeast assessed as yeast growth restoration measured after 46 to 48 hrs.
By EC50 is commonly meant the concentration that produces a half-maximal response. Turning to `Cc1cc(CNS(=O)(=O)c2ccc([N+](=O)[O-])cc2)c(C)s1`, the EC50 is 2.21 µM. In the case of `Cc1cc(CNS(=O)(=O)c2ccc(C#N)cc2)c(C)s1` it was 1.4 µM; in that of `Cc1cc(CNS(=O)(=O)c2ccc(Cl)cc2)c(C)o1`, 3.07 µM. The value for `Cc1cc(CNS(=O)(=O)c2ccc(Cl)cc2)c(C)s1` was 1.08 µM; that for `O=[N+]([O-])c1ccc(S(=O)(=O)NCc2csc3ccccc23)cc1` was 3.44 µM. The value for `Cc1cc(CNS(=O)(=O)c2ccc(Br)cc2)c(C)s1` was 1.58 µM; that for `Cc1cc(CNS(=O)(=O)c2ccc([N+](=O)[O-])cc2)c(C)o1` was 1.71 µM.

Values taken from BindingDB's records for PubMed 38330869 (National Institute of Pharmaceutical Education and …).
